Patent US11958880B2, “Means and methods for site-specific functionalization of polypeptides” (LUDWIG-MAXIMILIANS-UNIVERSITÄT MÜNCHEN, priority 2014, dated 2024)

Key:
Type in all cases: biochemical
[1] = biological target: T1, tubulin tyrosine ligase (TTL) (Canis lupus familiaris, UniProt A0A8I3N5B1); assay: TTL reaction on GBP4 followed by tryptic digest and HPLC-MS/MS; conditions: 1 mM tyrosine derivative, 1 μM TTL, 5 μM nanobody, 37° C., 24 h
T1 construct: His-Tag (N); SUMO3 (Sumo) (N); made in house; host or cells: E. coli BL21(DE3)
T1 sequence (A0A8I3N5B1 1-377): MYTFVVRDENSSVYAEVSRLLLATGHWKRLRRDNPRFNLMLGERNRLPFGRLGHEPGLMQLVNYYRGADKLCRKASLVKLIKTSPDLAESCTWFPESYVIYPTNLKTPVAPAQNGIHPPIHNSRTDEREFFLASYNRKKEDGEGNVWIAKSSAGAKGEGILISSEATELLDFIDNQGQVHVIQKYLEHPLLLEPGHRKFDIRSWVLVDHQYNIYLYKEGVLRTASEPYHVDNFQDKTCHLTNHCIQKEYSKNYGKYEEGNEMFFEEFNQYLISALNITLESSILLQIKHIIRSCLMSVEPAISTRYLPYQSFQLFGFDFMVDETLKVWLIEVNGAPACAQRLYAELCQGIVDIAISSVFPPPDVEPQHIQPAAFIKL
Method: Nanobodies were tyrosinated as described in Example 8. Proteins were separated by SDS-PAGE. Protein bands of interest were excised, soaked with 100 μL 50 mM (NH4)2CO3/ACN 1:1 and incubated at 30° C. for 10 min. The supernatant was removed and the gel pieces were incubated in 50 mM (NH4)2CO3 at 30° C. for further 10 min. The two incubation steps were repeated until the pieces were colorless. Hereafter, the gel pieces were dehydrated by the addition of 25 μL ACN, the supernatant removed and the gels were dried under reduced pressure. In-gel digest was performed in a total volume of 20 μL 50 mM (NH4)2CO3 at 37° C. for 12 h using 0.05 μg Trypsin. 20 μL ACN+0.5% TFA were added, the mixture was incubated in an ultrasonic bath, the supernatant transferred to LC glass vials, the solvent was removed under reduced pressure and the residual peptides resuspended in 6 μL 95% H2O+0.1% TFA, 5% ACN+0.1% TFA solution. Peptides were separated by HPLC and analysed by MSMS experiments.
Tyrosination reactions were performed in a 50 μL solution consisting of 20 mM MES/K pH 7.0, 100 mM KCl, 10 mM MgCl2, 2.5 mM ATP, 1 mM tyrosine derivative, 1 μM TTL, 5 μM nanobody and 5 mM reduced glutathione in case of compound 3 and 5 mM DTT in case of compound 1, 2, 9 and tyrosine (6), respectively. The mixture was incubated at 37° C. for 24 h. Proteins were separated by SDS-PAGE. Protein bands of interest were excised, soaked with 100 μL 50 mM (NH4)2CO3/ACN 1:1 and incubated at 30° C. for 10 min. The supernatant was removed and the gel pieces were incubated in 50 mM (NH4)2CO3 at 30° C. for further 10 min. The two incubation steps were repeated until the pieces were colourless. Hereafter, the gel pieces were dehydrated by the addition of 25 μL ACN, the supernatant removed and the gels were dried under reduced pressure. In-gel digest was performed in a total volume of 20 μL 50 mM (NH4)2CO3 at 37° C. for 12 h using 0.05 μg trypsin (Thermo Fisher Scientific, USA). 20 μL ACN+0.5% TFA was added, the mixture incubated in an ultrasonic bath, the supernatant transferred to LC glass vials, the solvent removed under reduced pressure and the residual peptides resuspended in 6 μL 95% H2O+0.1% TFA, 5% ACN+0.1% TFA solution. Peptides were separated by HPLC and analyzed by MSMS experiments.

[2] = biological target: T1, tubulin tyrosine ligase (TTL); assay: TTL tyrosination of carboxyfluorescein-labeled Tub-tag peptide (CF-Tub-tag), isocratic HPLC-fluorescence; conditions: TTL:peptide 1:200, after 120 min of incubation at 37° C.
Method: Tyrosination reactions were performed in a 250 μL solution consisting of 20 mM MES/K pH 7.0, 100 mM KCl, 10 mM MgCl2, 2.5 mM ATP, 1 mM tyrosine derivative, 0.2 mM peptide, 1 μM TTL and 5 mM DTT in case of compound 1, 2, 4 and 5 or 5 mM reduced glutathione in case of compound 3, respectively. The mixture was incubated at 37° C. and several aliquots (25 μL) were taken within 24 h, mixed with equal volumes of H2O+0.1% TFA and subjected either to isocratic analytical HPLC equipped with a fluorescence detector (Method A) or analytical UPLC-MS analysis. Quantities of substrate and product peptides were estimated from the corresponding peak-area in the fluorescence or UV detection spectrum (Ex/Em: 495/517).
Tyrosination reactions were performed in a 250 μL solution consisting of 20 mM MES/K pH 7.0, 100 mM KCl, 10 mM MgCl2, 2.5 mM ATP, 1 mM tyrosine derivative, 0.2 mM CF-Tub-tag 13, 1 μM TTL and 5 mM DTT in case of compound 2 or 5 mM reduced glutathione in case of compound 1, respectively. The mixture was incubated at 37° C. and several aliquots (25 μL) were taken, mixed with equal volumes of H2O+0.1% TFA and subjected to isocratic analytical HPLC equipped with a fluorescence detector (Method: A=H2O+0.1% TFA, B=MeCN+0.1% TFA; 35% B, 0-15 min, 10-100% B 15-17 min, 100% B 17-22 min, 100-35% B 22-25 min and 35% B 25-30 min.). […]

[3] = biological target: T1, tubulin tyrosine ligase (TTL); assay: TTL-mediated incorporation of tyrosine derivative to the C-terminus of GBP4 followed by SPAAC to DBCO-biotin (SDS-PAGE/western blot); conditions: for GBP4 converted (C-terminally modified GBP4): one hour; for GBP4 conversion: three hours
Method: Tyrosination reactions were performed in a 150 μL solution consisting of 20 mM MES/K pH 7.0, 100 mM KCl, 10 mM MgCl2, 2.5 mM ATP, 1 mM tyrosine derivative, 0.1-1 μM TTL, 5 μM nanobody and 5 mM reduced glutathione in case of compounds containing azides or 5 mM DTT for all other derivatives, respectively. The mixture was incubated at 37° C. for 1-3 h.
Tyrosination reactions were performed as described in Example 16 using compound 3, 5 mM reduced glutathione and a ratio of 10:1 GBP4/TTL for 3 h. The reaction mixtures were rebuffered to Dulbecco's PBS pH 7.4 and incubated with 30 eq. of Sulfo-Cy5-DBCO (Jena Bioscience GmbH, Germany) or DBCO-PEG4-biotin (Jena Bioscience GmbH, Germany) at 30° C. for 4 h. Proteins were separated by SDS-PAGE. Biotinylated nanobodies were wet blotted onto a nitrocellulose membrane using a Bio-Rad Mini-Protean Tetra System (250 mA, one hour). A streptavidin peroxidase conjugate (Merck Millipore, Germany) was used for detection. Fluorescently labeled nanobodies were visualized by a Fuji FLA-5000 laser imager (634 nm excitation, LPG-filter) (Fujifilm, Japan).

Compound | C-terminal addition to GBP4 shown by HPLC-MS/MS [1] | conjugate yield [2] [%] | GBP4 converted (C-terminally modified GBP4) ([3]; ratio 1:5 TTL/GBP4, 37° C.) [%] | GBP4 conversion ([3]; ratio 1:5 TTL/GBP4, 37° C.) [%] | GBP4 converted (C-terminally modified GBP4) ([3]; ratio 1:10 TTL/GBP4, 37° C.) [%] | GBP4 conversion ([3]; ratio 1:10 TTL/GBP4, 37° C.) [%]
N[C@@H](Cc1ccc(O)c(C=O)c1)C(=O)O [compound 1, 3-formyl-L-tyrosine] | successful C-terminal addition | 63 |  |  |  | 
N[C@@H](Cc1ccc(O)c([N+](=O)[O-])c1)C(=O)O [compound 2, 3-nitro-L-tyrosine] | successful C-terminal addition |  |  |  |  | 

The remaining lines, values ahead:

C-terminal addition to GBP4 shown by HPLC-MS/MS [1] | conjugate yield [2] [%] | GBP4 converted (C-terminally modified GBP4) ([3]; ratio 1:5 TTL/GBP4, 37° C.) [%] | GBP4 conversion ([3]; ratio 1:5 TTL/GBP4, 37° C.) [%] | GBP4 converted (C-terminally modified GBP4) ([3]; ratio 1:10 TTL/GBP4, 37° C.) [%] | GBP4 conversion ([3]; ratio 1:10 TTL/GBP4, 37° C.) [%] | Compound
successful C-terminal addition | 80 | 82 | 99 | 71 | 88 | [N-]=[N+]=Nc1cc(C[C@H](N)C(=O)O)ccc1O [compound 3, 3-azido-L-tyrosine]
successful C-terminal addition |  |  |  |  |  | N[C@@H](Cc1ccc(O)cc1)C(=O)O [compound 6, L-tyrosine, reference compound]
successful C-terminal addition |  |  |  |  |  | Nc1cc(C[C@H](N)C(=O)O)ccc1O [compound 9, 3-amino-L-tyrosine]
